From patent publication US20020165221A1, “Mediators of hedgehog signaling pathways, compositions and uses related thereto” (priority 2000, published 2002)

Test system: Hedgehog pathway
Assay: Gli-Luc assay (Hedgehog-responsive Luciferase reporter), 10T1/2(s12) cells with OCT-SHH
Format: cell-based
Conditions: OCT-SHH 0.3 μg/ml
Experimental: Compounds to be tested are dissolved in DMSO to a concentration of 10 MM, and stored at −20° C. To activate the Hedgehog pathway in the assay cells, an octylated (lipid-modified) form of the N-terminal fragment of the Sonic Hedgehog protein (OCT-SHH) is used. This N-terminal SHH fragment is produced bacterially.
Compounds may be tested in the “Gli-Luc” assay below, using the cell line 10T(s12), wherein the cells contain a Hedgehog-responsive reporter construct utilizing Luciferase as the reporter gene. In this way, Hedgehog pathway signaling activity can be measured via the Gli-Luc response.
10t1/2(s12) cells are plated in a 96-well micro-titer plate (MTP) at 20,000 cells/well in full medium [DMEM with 10% FBS]. Then plates are placed in the incubator for incubation overnight (O/N), at 37° C. and 5% CO2. After 24 h, the medium is replaced with Luciferase-assay medium (DMEM with 0.5% FBS). Compounds are thawed and diluted in assay medium at 3:1000 (about 300-fold) resulting in a starting concentration of about 30 μM.
Subsequently, 150 μl of each 30 μM sample is added to the first wells (in triplicate). The MTP samples are then diluted at 3-fold dilutions to a total of seven wells, ultimately resulting in a regiment of seven dilutions in triplicate, for each compound. Next, the protein ligand OCT-SHH is diluted in Luciferase-assay medium and added to each well at a final concentration of 0.3 μg/ml. Plates are then returned to the incubator for further incubation O/N, at 37° C. and 5% CO2. After about 24 h, plates are removed from the incubator and the medium is aspirated/discarded. Wells are washed once with assay buffer [PBS +1 mM Mg^2+and 1 mM Ca^2+]. Then 50 μl of assay buffer is added to each well. The Luciferase assay reagent is prepared as described by the vendor (LucLite kit from Packard), and 50 μl is added to each well. Plates are incubated at room temperature (RT) for about 30 minutes after which the signals are read, again at RT, on a Topcount (Packard).

**Q.** How did the IC50 turn out when `Cc1ccccc1CN(C(=O)CC(C)C)C1CC(C(=O)N2CCNCC2)N(Cc2ccc3c(c2)OCO3)C1` (stereo not shown) [V″] was run?
**A.** < 1 µM

**Q.** For `Cc1ccc(CN2CC(N(Cc3cccs3)C(=O)C3CC3)CC2C(=O)N2CCNCC2)s1` (stereo not shown) [U], which IC50 is on record?
**A.** < 1 µM

**Q.** How did the IC50 turn out when `COc1cccc(CN(C(=O)CC(C)C(F)(F)F)C2CC(C(=O)N3CCNCC3)N(Cc3ccc4c(c3)OCO4)C2)c1` (stereo not shown) [L″] was run?
**A.** < 1 µM

**Q.** For `COc1cccc(CN(C(=O)CC(C)(C)C)[C@H]2C[C@@H](C(=O)N3CCNCC3)N(Cc3ccc(Br)s3)C2)c1` [C″], which IC50 is on record?
**A.** < 1 µM

**Q.** `COc1cccc(CN(C(=O)CC(C)(C)C)[C@H]2C[C@@H](C(=O)N(C)C3CCNC3)N(Cc3ccc4c(c3)OCO4)C2)c1` (stereo partly shown) [D′″] was tested. Which IC50 did it give?
**A.** < 10 µM

**Q.** `COc1cccc(CN(C(=O)C(C)C)C2CC(C(=O)N3CCNCC3)N(Cc3ccc(C)s3)C2)c1` (stereo not shown) [O] was tested. Which IC50 did it give?
**A.** < 0.1 µM

**Q.** With `COc1cccc(CN2CC(N(Cc3cccc(OC)c3)C(=O)c3cccs3)CC2C(=O)N2CCNCC2)c1` (stereo not shown) [Q] as the compound, how does the IC50 read?
**A.** < 1 µM

**Q.** For `Cc1ccc(CN2CC(N(Cc3cccs3)C(=O)c3cccs3)CC2C(=O)N2CCNCC2)s1` (stereo not shown) [D′], which IC50 is on record?
**A.** < 10 µM

**Q.** `O=C(C1CC(N(CC2CCCCC2)CC2CCCO2)CN1Cc1ccc(F)cc1)N1CCNCC1` (stereo not shown) [E′] was tested. Which IC50 did it give?
**A.** < 10 µM

**Q.** With `COc1cccc(CN(C(=O)C2CC2)C2CC(C(=O)N3CCNCC3)N(Cc3ccc4c(c3)OCO4)C2)c1` (stereo not shown) [E] as the compound, how does the IC50 read?
**A.** < 0.1 µM

**Q.** Which IC50 does the source give for `COc1cccc(CN2CC(N(CCc3ccccc3)Cc3ccccc3C)CC2C(=O)NCCN)c1` (stereo not shown) [G′] here?
**A.** < 10 µM

**Q.** Which IC50 does the source give for `COc1cccc(CN(C(=O)CC(C)C)C2CC(C(=O)N3CCNCC3)N(Cc3ccc(C)s3)C2)c1` (stereo not shown) [X′] here?
**A.** < 0.1 µM

**Q.** For `COC(=O)c1ccsc1CN1CC(N(Cc2cccc(OC)c2)C(=O)CC(C)(C)C)CC1C(=O)N1CCNCC1` (stereo not shown) [B″], which IC50 is on record?
**A.** < 1 µM

**Q.** Which IC50 does the source give for `COc1cccc(CN(C(=O)C2CC2)C2CC(C(=O)N3CCNCC3)N(Cc3ccc(F)cc3)C2)c1` (stereo not shown) [W] here?
**A.** < 1 µM

**Q.** For `COc1cccc(CN(C(=O)c2ccco2)C2CC(C(=O)N3CCNCC3)N(Cc3ccc4c(c3)OCCO4)C2)c1` (stereo not shown) [Q′], which IC50 is on record?
**A.** < 10 µM

**Q.** How did the IC50 turn out when `COc1cccc(CN(C(=O)CC(C)(C)C)[C@H]2C[C@@H](C(=O)N3CCNCC3)N(Cc3ccc(C=O)s3)C2)c1` [H″] was run?
**A.** < 10 µM

**Q.** For `CCOc1cc(CN2CC(N(Cc3cccc(OC)c3)C(=O)CC(C)(C)C)CC2C(=O)N2CCNCC2)ccc1OC` (stereo not shown) [K′], which IC50 is on record?
**A.** < 10 µM

**Q.** Which IC50 does the source give for `COc1cccc(CN(C(=O)CC(C)(C)C)[C@H]2C[C@@H](C(=O)N3CCNCC3)N(Cc3ccc(-c4cccs4)s3)C2)c1` [D″] here?
**A.** < 10 µM

**Q.** With `O=C(C1CC(N(Cc2cccs2)C(=O)C2CC2)CN1Cc1ccc2c(c1)OCO2)N1CCNCC1` (stereo not shown) [V] as the compound, how does the IC50 read?
**A.** < 1 µM

**Q.** `COc1cccc(CN(C(=O)CC(C)(C)C)[C@H]2C[C@@H](C(=O)N3CCNCC3)N(Cc3cc(C)c(C)o3)C2)c1` [G″] was tested. Which IC50 did it give?
**A.** < 1 µM

**Q.** How did the IC50 turn out when `CCC(=O)N(Cc1cccc(OC)c1)C1CC(C(=O)N2CCNCC2)N(Cc2ccc(OC)c(OC)c2OC)C1` (stereo not shown) [S′] was run?
**A.** < 10 µM

**Q.** Which IC50 does the source give for `CC(C)(C)CC(=O)N(Cc1ccccc1)C1CC(C(=O)NCCN)N(CC2CCCCC2)C1` (stereo not shown) [Y] here?
**A.** < 10 µM

**Q.** For `COc1cccc(CN(C(=O)CC(C)(C)C)C2CC(C(=O)N3CCNCC3)N(Cc3ccc(SC)s3)C2)c1` (stereo not shown) [Z′], which IC50 is on record?
**A.** < 1 µM

**Q.** How did the IC50 turn out when `COc1cccc(CN(C(=O)CC(C)(C)C)[C@H]2C[C@@H](C(=O)N3CCN[C@@H](C)C3)N(Cc3ccc4c(c3)OCO4)C2)c1` [Z″] was run?
**A.** < 1 µM

**Q.** For `COc1cccc(CN(C(=O)CC(C)(C)C)C2CC(C(=O)N3CCNCC3)N(Cc3ccc4c(c3)OCO4)C2)c1` (stereo not shown) [O′], which IC50 is on record?
**A.** < 0.1 µM

**Q.** Which IC50 does the source give for `COc1cccc(CN(C(=O)CC(C)C)C2CC(C(=O)N3CCNCC3)N(Cc3ccsc3)C2)c1` (stereo not shown) [G] here?
**A.** < 1 µM

**Q.** How did the IC50 turn out when `COc1cccc(CN(C(=O)CC(C)C)C2CC(C(=O)N3CCNCC3)N(Cc3ccc(OC)c(OC)c3OC)C2)c1` (stereo not shown) [Compound I] was run?
**A.** < 10 µM

**Q.** With `COc1cccc(CN(C(=O)NC(C)C)[C@H]2C[C@@H](C(=O)N3CCNCC3)N(Cc3ccc4c(c3)OCO4)C2)c1` [O″] as the compound, how does the IC50 read?
**A.** < 1 µM

**Q.** How did the IC50 turn out when `Cc1ccc(CN2CC(N(CCc3ccccc3)Cc3ccc(F)cc3)CC2C(=O)NCCN)s1` (stereo not shown) [H′] was run?
**A.** < 10 µM

**Q.** With `COc1cccc(CN(C(=O)CC(C)(C)C)C2CC(C(=O)N3CCNCC3)N(Cc3ccccc3)C2)c1` (stereo not shown) [R] as the compound, how does the IC50 read?
**A.** < 1 µM

**Q.** Which IC50 does the source give for `COc1cccc(CN(C(=O)C2CCCC2)C2CC(C(=O)N3CCNCC3)N(Cc3ccc(OC)c(OC)c3OC)C2)c1` (stereo not shown) [V′] here?
**A.** < 1 µM

**Q.** With `COc1cccc(CN(C(=O)CC(C)(C)C)C2CC(C(=O)N3CCNCC3)N(Cc3ccc(OC)c(OC)c3OC)C2)c1` (stereo not shown) [K] as the compound, how does the IC50 read?
**A.** < 0.1 µM

**Q.** For `NCCNC(=O)C1CC(N(CCc2ccccc2)C(=O)C2CCCCC2)CN1CC1CCCCC1` (stereo not shown) [B′], which IC50 is on record?
**A.** < 10 µM

**Q.** For `COCC(=O)N(Cc1cccc(OC)c1)[C@H]1C[C@@H](C(=O)N2CCNCC2)N(Cc2ccc3c(c2)OCO3)C1` [P″], which IC50 is on record?
**A.** < 10 µM

**Q.** With `CC(C)CC(=O)N(Cc1cccc(SC(F)(F)F)c1)C1CC(C(=O)N2CCNCC2)N(Cc2ccc3c(c2)OCO3)C1` (stereo not shown) [X″] as the compound, how does the IC50 read?
**A.** < 10 µM

**Q.** With `NCCNC(=O)C1CC(N(CCc2ccccc2)Cc2ccc([N+](=O)[O-])cc2)CN1CC1CCCCC1` (stereo not shown) [F′] as the compound, how does the IC50 read?
**A.** < 10 µM

**Q.** For `CC(C)CC(=O)N(Cc1cccc([N+](=O)[O-])c1)C1CC(C(=O)N2CCNCC2)N(Cc2ccc3c(c2)OCO3)C1` (stereo not shown) [U″], which IC50 is on record?
**A.** < 10 µM

**Q.** How did the IC50 turn out when `COc1cccc(CN(C(=O)C2CCCC2)C2CC(C(=O)N3CCNCC3)N(Cc3ccc4c(c3)OCCO4)C2)c1` (stereo not shown) [W′] was run?
**A.** < 1 µM

**Q.** For `CCc1ccc(CN2CC(N(Cc3cccc(OC)c3)C(=O)CC(C)(C)C)CC2C(=O)N2CCNCC2)s1` (stereo not shown) [A″], which IC50 is on record?
**A.** < 1 µM

**Q.** For `O=C(C1CC(N(CC2CCCCC2)CC2CC2)CN1Cc1ccc(F)cc1)N1CCCNCC1` (stereo not shown) [C′], which IC50 is on record?
**A.** < 10 µM

**Q.** `COc1cccc(CN(C(=O)NC(C)(C)C)[C@H]2C[C@@H](C(=O)N3CCNCC3)N(Cc3ccc4c(c3)OCO4)C2)c1` [I″] was tested. Which IC50 did it give?
**A.** < 0.1 µM

**Q.** Which IC50 does the source give for `CC(C)CN(C(=O)c1cccs1)C1CC(C(=O)NC2CCC(N)CC2)N(CC2CCCCC2)C1` (stereo not shown) [J′] here?
**A.** < 10 µM

**Q.** With `CC(C)CC(=O)N(Cc1cccc(O)c1)C1CC(C(=O)N2CCNCC2)N(Cc2ccc3c(c2)OCO3)C1` (stereo not shown) [T″] as the compound, how does the IC50 read?
**A.** < 1 µM

**Q.** With `CC(C)CC(=O)N(Cc1cccc(OCc2ccccc2)c1)C1CC(C(=O)N2CCNCC2)N(Cc2ccc3c(c2)OCO3)C1` (stereo not shown) [Y″] as the compound, how does the IC50 read?
**A.** < 10 µM

**Q.** With `COc1cccc(CN(C(=O)CC2CC2)[C@H]2C[C@@H](C(=O)N3CCNCC3)N(Cc3ccc4c(c3)OCO4)C2)c1` [J″] as the compound, how does the IC50 read?
**A.** < 0.1 µM

**Q.** How did the IC50 turn out when `COc1cccc(CN(C(=O)CC(C)(C)C)C2CC(C(=O)N3CCNCC3)N(Cc3ccc4c(c3)OCCO4)C2)c1` (stereo not shown) [J] was run?
**A.** < 0.1 µM

**Q.** How did the IC50 turn out when `CC(C)CC(=O)N(Cc1ccccc1OC(F)F)C1CC(C(=O)N2CCNCC2)N(Cc2ccc3c(c2)OCO3)C1` (stereo not shown) [W″] was run?
**A.** < 10 µM

**Q.** Which IC50 does the source give for `COc1cccc(CN(C(=O)C2CC2)C2CC(C(=O)N3CCNCC3)N(Cc3ccc(C)s3)C2)c1` (stereo not shown) [B] here?
**A.** < 1 µM

**Q.** How did the IC50 turn out when `Cc1cccc(CN(C(=O)CC(C)C)[C@H]2C[C@@H](C(=O)N3CCNCC3)N(Cc3ccc4c(c3)OCO4)C2)c1` [R″] was run?
**A.** < 1 µM

**Q.** With `CCNCCCN(CC)C(=O)[C@@H]1C[C@H](N(Cc2cccc(OC)c2)C(=O)CC(C)(C)C)CN1Cc1ccc2c(c1)OCO2` [F′″] as the compound, how does the IC50 read?
**A.** < 1 µM

**Q.** `C=CCOC(=O)N(Cc1cccc(OC)c1)[C@H]1C[C@@H](C(=O)N2CCNCC2)N(Cc2ccc3c(c2)OCO3)C1` [M″] was tested. Which IC50 did it give?
**A.** < 1 µM

**Q.** Which IC50 does the source give for `COc1cccc(CN2CC(N(Cc3cccc(OC)c3)C(=O)C3CC3)CC2C(=O)N2CCNCC2)c1` (stereo not shown) [C] here?
**A.** < 1 µM

**Q.** Which IC50 does the source give for `COc1cccc(CN(C(=O)CC(C)CCC=C(C)C)C2CC(C(=O)N3CCNCC3)N(Cc3ccc4c(c3)OCO4)C2)c1` (stereo not shown) [Q″] here?
**A.** < 10 µM

**Q.** Which IC50 does the source give for `COc1cccc(CN(C(=O)CC(C)(C)C)C2CC(C(=O)N3CCNCC3)N(Cc3ccc(F)cc3)C2)c1` (stereo not shown) [X] here?
**A.** < 10 µM

**Q.** For `COc1cccc(CN(C(=O)CC(C)(C)C)C2CC(C(=O)N3CCNCC3)N(Cc3ccc4c(c3)OCO4)C2)c1` (stereo not shown) [N], which IC50 is on record?
**A.** < 1 µM
